Data: patent US10385030B2, “Cationic lipid” (NOF CORPORATION, priority 2015, dated 2019)
“Also recorded” adds a separate entry of the source.

What was measured:
[1] = Particle size and surface potential of MENDs by dynamic light scattering (Experimental Example 6); format: physicochemical
Procedure: Various MENDs were prepared by the ethanol dilution method in [Experimental Example 1] (2), and DOPC was used as a phospholipid. PEG5000-DSG was used as a PEG lipid, and an amount corresponding to 5 mol % of the total lipid was added in Myr-C3M MEND, and an amount corresponding to 10 mol % was added in TS-PZ4C2 MEND.
pDNA solution (1 mg/mL), 100 mM malic acid buffer (pH 4.0), 5 M aqueous sodium chloride solution and sterilized water were mixed, and a solution having a final concentration of 0.1 mg/mL, 20 mM, 40 mM, respectively, was prepared and used as a DNA solution.
A lipid solution in ethanol was prepared by mixing 5 mM cationic lipid (L-PZ4C2, O-PZ4C2), 10 mM cholesterol (Chol), and 10 mM DOPC at desired ratios to achieve 840 nmol total lipid in a 5 mL tube, further adding PEG5000-DSG (1 mM ethanol solution) in an amount corresponding to 5 mol % of the total lipid, and adding ethanol to achieve a total amount of 200 μL (80% ethanol solution) and 20 mM malic acid buffer (pH 4.0). While stirring the lipid solution in a vortex mixer, the above-mentioned DNA solution (200 μL) was quickly added, after which 20 mM malic acid buffer (pH 4.0) (1600 μL) was added, phosphate buffered saline was added, and the mixture was diluted to an ethanol concentration of 8%. Similar operation was repeated three times and phosphate buffered saline was added to an ethanol concentration of 4%. Thereafter, using Amicon Ultra 15 (Millipore), the mixture was concentrated to about 200 μL by ultrafiltration under centrifugation condition (room temperature, 2267 rpm, 30 min). Thereafter, the mixture was diluted with phosphate buffered saline to 15 mL, and concentrated again by centrifugation (2267 rpm, for 30 min) under room temperature conditions. Finally, it was diluted to a desired lipid concentration with phosphate buffered saline.
The particle size and the surface potential were measured by the dynamic light scattering method (Zetasizer Nano).

[2] = tested on: 4T1 tumor; assay: Gene expression activity (gene delivery into tumor) in vivo (Experimental Example 8); set-up: species or system BALB/c mice; settings: MEND encapsulating pDNA, tail vein, 25 mg DNA, 48 hr; FIG. 6
Procedure: Various MENDs were prepared according to the method described in [Experimental Example 6]. Cancer-carrying mice were produced by subcutaneous administration of a suspension of mouse breast cancer-derived cancer cell line 4T1 cells (1×10^6 cells/mouse) to 6-week-old female BALB/c mice. At 7 days after the subcutaneous transplantation of the cancer cells, the prepared MEND solutions were administered each in an amount corresponding to […] from the tail vein. The mice were euthanized by a cervical spine […] method at 48 hr after the administration, the tumor was isolated and frozen with liquid nitrogen. The tumor was lysed in a Lysis buffer to prepare homogenate. The homogenate was centrifuged at 13,000 rpm, 10 min, 4° C., and the supernatant was collected and used as a measurement sample. The sample solution (20 μL) was mixed with a luciferase substrate (50 μL), and the luciferase activity was measured using Luminescenser-PSN (AB2200 ATTO). In addition, the concentration of the protein in the sample was quantified using a BCA protein assay kit, and the gene expression activity was measured as RLU/mg protein.

[3] = compared to DOTAP, DODAP; known from patent document 1; cited from earlier work
[4] = Particle size and surface potential of MENDs by dynamic light scattering (Experimental Example 1); format: physicochemical
Procedure: A solution of pDNA encoding luciferase gene and a protamine (manufactured by CALBIOCHEM) solution were diluted with 10 mM HEPES buffer to 0.15 mg/mL and 96.3 μg/mL, respectively. While stirring 0.15 mg/mL pDNA solution (100 μL), 96.3 μg/mL protamine (100 μL) was added dropwise in small portions to prepare an electrostatic complex of protamine and pDNA (N/P ratio=1.0) as a core of the vector.
A lipid solution in ethanol was prepared by mixing 5 mM cationic lipid (Myr-C3M), 5 mM phospholipid (SOPC) and 5 mM cholesterol (Chol) at desired ratios to achieve 330 nmol total lipid in an Eppendorf tube, further adding PEG2000-DSG (1 mM ethanol solution) in an amount corresponding to 3 mol % of the total lipid, and adding ethanol to achieve a total volume of 200 μL. While stirring the lipid solution in a vortex mixer, 200 μL of the nucleic acid electrostatic complex (10 mM HEPES; pH 5.3) prepared in [Experimental Example 1] (1) was quickly added, and thereafter 10 mM HEPES buffer (1.6 mL, adjusted to pH 5.3) was added. Furthermore, 10 mM HEPES buffer (2 mL) adjusted to pH 5.3 was added to dilute the mixture to an ethanol concentration of 5%. The mixture was concentrated to about 50 μL by ultrafiltration using Amicon Ultra 4 (Millipore) under centrifugation conditions (room temperature, 1000 g, 15 min). Thereafter, it was diluted to 4 mL with 100 mM HEPES buffer (adjusted to pH 7.4), and again concentrated by centrifugation (1000 g, 15 min) under room temperature conditions. Thereafter, it was diluted to 4 mL with 10 mM HEPES buffer (pH 7.4), and again concentrated by centrifugation (1000 g, 15 min) under room temperature conditions. Finally, it was diluted with 10 mM HEPES buffer (pH 7.4) to a desired lipid concentration.
pDNA solution (1 mg/mL), 100 mM malic acid buffer (pH 4.0), 5 M aqueous sodium chloride solution and sterilized water were mixed, and a solution having final concentrations of 0.1 mg/mL, 20 mM, 40 mM, respectively, was prepared and used as a DNA solution.
A lipid solution in ethanol was prepared by mixing 5 mM cationic lipid (TS-PZ4C2 or TS-C3M), and 10 mM cholesterol (Chol) at desired ratios to achieve 600 nmol total lipid in a 5 mL tube, further adding PEG2000-DMG (5 mM ethanol solution) in an amount corresponding to 3 mol % of the total lipid, and adding ethanol to achieve a total volume of 200 μL. While stirring the lipid solution in a vortex mixer, the above-mentioned DNA solution (300 μL) was quickly added, after which 20 mM malic acid buffer (pH 4.0, containing 100 mM sodium chloride) (500 μL) was added, and phosphate buffered saline was added to dilute the mixture to the ethanol concentration of 10%. Similar operation was repeated three times and phosphate buffered saline was added to an ethanol concentration of 5%. Thereafter, the mixture was concentrated to about 200 μL by ultrafiltration using Amicon Ultra 15 (Millipore, under centrifugation conditions (room temperature, 2267 rpm, 20 min). Thereafter, it was diluted to 15 ml with phosphate buffered saline, and again concentrated by centrifugation (2267 rpm, 20 min) under conditions of room temperature. Finally, it was diluted with phosphate buffered saline to a desired lipid concentration.
The particle size and the surface potential were measured by the dynamic light scattering method (Zetasizer Nano; Malvern Instruments Ltd.).

[5] = MEND of L-PZ4C2, cationic lipid:DOPC:Chol = 6:1:3, PEG5000-DSG 5 mol %
[6] = MEND of Myr-C3M, cationic lipid:DOPC:Chol = 3:4:3, PEG5000-DSG 5 mol %
[7] = MEND of Myr-C3M, cationic lipid:SOPC:Chol = 3:4:3, PEG2000-DSG 3 mol %
[8] = MEND of O-PZ4C2, cationic lipid:DOPC:Chol = 6:1:3, PEG5000-DSG 5 mol %
[9] = MEND of TS-C3M, cationic lipid:Chol = 7:3, PEG2000-DMG 3 mol %
[10] = MEND of TS-PZ4C2, cationic lipid:Chol = 7:3, PEG5000-DSG 10 mol %
[11] = MEND of TS-PZ4C2, cationic lipid:Chol = 7:3, PEG2000-DMG 3 mol %

Q: With `CCCCC/C=C\C/C=C\CCCCCCCC(=O)OCCN1CCN(CCSSCCN2CCN(CCOC(=O)CCCCCCC/C=C\C/C=C\CCCCC)CC2)CC1` [L-PZ4C2] as the molecule, how does the PdI [1, 5] read?
A: 0.094

Q: What about the particle size [1, 5] of the same molecule?
A: 108.7 nm

Q: What about the zeta potential [1, 5] of the same molecule?
A: 0.144 mV

Q: What about the “gene delivery expression activity to tumor (luciferase activity, RLU/mg protein)” value [2] of the same molecule?
A: higher gene delivery expression activity to tumor than the lipid membrane structures using the cationic lipids of Comparative Example 1

Q: With `CCCCCCCCCCCCCC(=O)OCCCN(C)CCSSCCN(C)CCCOC(=O)CCCCCCCCCCCCC` [Myr-C3M] as the molecule, how does the “nucleic acid delivery efficiency” value [3] read?
A: high nucleic acid delivery efficiency as compared to cationic lipids such as DOTAP, DODAP; also recorded: higher nucleic acid delivery efficiency as compared to conventional cationic lipids such as DOTAP, DODAP

Q: And the PdI [1, 6]?
A: 0.134

Q: What about the particle size [1, 6] of the same molecule?
A: 113.9 nm

Q: And the zeta potential [1, 6]?
A: −0.135 mV

Q: And the PdI [4, 7]?
A: 0.188

Q: And the particle size [4, 7]?
A: 128.3 nm

Q: And the zeta potential [4, 7]?
A: 1.88 mV

Q: Which results are given for `CCCCCCCC/C=C\CCCCCCCC(=O)OCCN1CCN(CCSSCCN2CCN(CCOC(=O)CCCCCCC/C=C\CCCCCCCC)CC2)CC1` [O-PZ4C2]?
A: PdI [1, 8]: 0.083; particle size [1, 8]: 115.2 nm; zeta potential [1, 8]: −0.294 mV; gene delivery expression activity to tumor (luciferase activity, RLU/mg protein) [2]: higher gene delivery expression activity to tumor than the lipid membrane structures using the cationic lipids of Comparative Example 1

Q: What does the source list for `Cc1c(C)c2c(c(C)c1OC(=O)CCC(=O)OCCCN(C)CCSSCCN(C)CCCOC(=O)CCC(=O)Oc1c(C)c(C)c3c(c1C)CCC(C)(CCCC(C)CCCC(C)CCCC(C)C)O3)CCC(C)(CCCC(C)CCCC(C)CCCC(C)C)O2` (stereo not shown) [TS-C3M]?
A: nucleic acid delivery efficiency [3]: high nucleic acid delivery efficiency as compared to cationic lipids such as DOTAP, DODAP; PdI [4, 9]: 0.08; particle size [4, 9]: 141.3 nm; zeta potential [4, 9]: −5.4 mV

Q: With `Cc1c(C)c2c(c(C)c1OC(=O)CCC(=O)OCCN1CCN(CCSSCCN3CCN(CCOC(=O)CCC(=O)Oc4c(C)c(C)c5c(c4C)CCC(C)(CCCC(C)CCCC(C)CCCC(C)C)O5)CC3)CC1)CCC(C)(CCCC(C)CCCC(C)CCCC(C)C)O2` (stereo not shown) [TS-PZ4C2] as the molecule, how does the PdI [1, 10] read?
A: 0.121

Q: And the particle size [1, 10]?
A: 104.8 nm

Q: And the zeta potential [1, 10]?
A: −0.897 mV

Q: What about the PdI [4, 11] of the same molecule?
A: 0.041

Q: What about the particle size [4, 11] of the same molecule?
A: 126.8 nm

Q: And the zeta potential [4, 11]?
A: −7.38 mV
